Results reported in US11617730B2, “Pharmaceutical formulation for administering paracetamol by buccal/gingival route” (Unither Pharmaceuticals, priority 2017, dated 2023).

What was measured:
[1] = DOSY 1H-NMR measurement of diffusion coefficients and hydrodynamic radius (Stokes-Einstein); type: physicochemical; details: in ethanol; reference samples, 25° C.
Text: For the purposes of the present invention, “hydrodynamic radius”, or RH, means the radius of a solute in solution, said solute being assumed to be spherical, as defined by the following Stokes-Einstein relation [Edward, J. T. (1970) J. Chem. Educ. 47, 261; Einstein, A. (1905) Annalen Der Physik 17, 549-560; Einstein, A. (1906) Annalen Der Physik 19, 371-381]:
[formula] • D is the diffusion coefficient of the solute in the solvent (expressed in m^2·s^−1), • kB is the Boltzmann constant, and is kB=1.3806·10^−23 J·K^−1, • T is the temperature of the medium (expressed in K), • ρ is the viscosity of the medium (expressed in Pa·s, or equivalent in kg·s^−1·m^−1), and • RH is expressed in m. […]
The sizes of molecules in solution can be estimated by liquid NMR using so-called diffusion experiments to measure the diffusion coefficients of species in solution. The experiment is performed by applying a magnetic field gradient in a given direction, the direction in which the diffusion of particles is measured. […]
This table also includes viscosity values obtained from the literature [Khattab, I. S., Bandarkar, F., Fakhree, M. A. A., and Jouyban, A. (2012) Korean J. Chem. Eng. 29, 812-817], the mole fraction of ethanol and the hydrodynamic radius calculated from the Stokes-Einstein equation. The accuracy of the value thus calculated is estimated at ±0.1 Å. […]

[2] = Stability / pre-stability studies of paracetamol in hydroalcoholic solution; type: physicochemical

RH of paracetamol [1]: 4.2 Å | Coloration in pre-stability studies ([2]; 6 months at 40° C., concentration greater than 115 mg/mL): appearance of pink coloration | Recrystallization in stability studies ([2]; concentration too high, typically above 125 mg/mL): recrystallizes over time
SMILES: CC(=O)Nc1ccc(O)cc1 [paracetamol]
